The nature of data set [1]: log P determination by HPLC on reverse-phase column (C 18), acidic range pH 2.3 (EEC Directive 79/831 Annex V. A8). In kind it is physicochemical. Particulars: for chromatographic logP: reverse-phase HPLC column (C 18); for logP: Table 1 (I-c). How it is done:
The stated log P values were determined in accordance with EEC Directive 79/831 Annex V. A8 by HPLC (High Performance Liquid Chromatography) on a reverse-phase column (C 18). Temperature: 43° C. Mobile phases for the determination in the acidic range (pH 2.3): 0.1% aqueous phosphoric acid, acetonitrile; linear gradient from 10% acetonitrile to 90% acetonitrile. Calibration was carried out using unbranched alkan-2-ones (having 3 to 16 carbon atoms) with known log P values (determination of the log P values by the retention times using linear interpolation between two successive alkanones).

The test system of data set [2] is Puccinia recondita. Put plainly: Puccinia test (wheat)/protective. The format is in vivo. Particulars: 240 h, protective, application rate 500 g/ha, evaluation 10 days after inoculation, 0% = control, 100% = no infection, read-out: Efficacy in %. How it is done: (§1) To produce a suitable preparation of active compound, 1 part by weight of active compound is mixed with the stated amounts of solvent and emulsifier, and the concentrate is diluted with water to the desired concentration.
To test for protective activity, young plants are sprayed with the preparation of active compound at the stated application rate. After the spray coating has dried on, the plants are sprayed with a conidia suspension of Puccinia recondita. The plants remain in an incubation cabinet at 20° C. and 100% relative atmospheric humidity for 48 hours. The plants are then placed in a greenhouse at a temperature of about 20° C. and a relative atmospheric humidity of 80%.
(§2) Evaluation is carried out 10 days after the inoculation. 0% means an efficacy which corresponds to that of the control, whereas an efficacy of 100% means that no infection is observed.

Data set [3] has as its system Venturia inaequalis. Put plainly: Venturia test (apple)/protective. The format is in vivo. The settings on record: protective, application rate 100 g/ha, evaluation 10 days after inoculation, 0% = control, 100% = no infection. How it is done: (§3) To produce a suitable preparation of active compound, 1 part by weight of active compound is mixed with the stated amounts of solvents and emulsifier, and the concentrate is diluted with water to the desired concentration.
To test for protective activity, young plants are sprayed with the preparation of active compound at the stated application rate. After the spray coating has dried on, the plants ate inoculated with an aqueous conidia suspension of the apple scab pathogen Venturia inaequalis and then remain in an incubation cabinet as about 20° C. and 100% relative atmospheric humidity for 1 day. The plants are then placed in a greenhouse at about 21° C. and a relative atmospheric humidity of about 90%.
as §2

The subject of data set [4] is Podosphaera leucotricha. Kind of data set: Podosphaera test (apple)/protective. In kind it is in vivo. Particulars: protective, application rate 100 g/ha, evaluation 10 days after inoculation, 0% = control, 100% = no infection. How it is done: as §3
To test for protective activity, young plants are sprayed with the preparation of active compound at the stated application rate. After the spray coating has dried on, the plants are inoculated with an aqueous spore suspension of Podosphaera leucotricha. The plants are then placed in a greenhouse at about 23° C. and a relative atmospheric humidity of about 70%.
as §2

Data set [5] relates to Alternaria solani. Put plainly: Alternaria test (tomato)/protective. The format is in vivo. The settings on record: protective, application rate 750 g/ha, evaluation 7 days after inoculation, 0% = control, 100% = no infection. How it is done: as §1
To test for protective activity, young tomato plants are sprayed with the preparation of active compound at the stated application rate. 1 day after the treatment, the plants are inoculated with a spore suspension of Alternaria solani and then remain at 100% relative atmospheric humidity and 20° C. for 24 h. The plants then remain at 96% relative atmospheric humidity and a temperature of 20° C.
Evaluation is carried out 7 days after the inoculation. 0% means an efficacy which corresponds to that of the control, whereas an efficacy of 100% means that no infection is observed.

Data set [6] has as its system Botrytis cinerea. Put plainly: Botrytis test (bean)/protective. Particulars: protective, application rate 500 g/ha, evaluation 2 days after inoculation (size of infected areas), 0% = control, 100% = no infection. The format is in vivo. How it is done:
as §3
To test for protective activity, young plants are sprayed with the preparation of active compound at the stated application rate. After the spray coating has dried on 2 small pieces of agar colonized by Botrytis cinerea are placed onto each leaf. The inoculated plants are placed in a dark chamber at about 20° C. and 100% relative atmospheric humidity.
2 days after the inoculation, the size of the infected areas on the leaves is evaluated. 0% means an efficacy which corresponds to that of the control, whereas an efficacy of 100% means that no infection is observed.

Setting [7] is: pH 2.3, Table 1 (I-c), pH 2.3, HPLC C18, 43° C., main diastereomer or, where several values in a cell, the individual diastereomers, read-out: logP.
[8] abbreviates: pH 2.3, HPLC C18, 43° C., main diastereomer or, where several values in a cell, the individual diastereomers.

Read-outs that look alike come from different tables or passages of the source.

For orientation: logP means the decadic logarithm of the partition coefficient of the neutral form, usually between octanol and water. Lower therefore signals a more hydrophilic compound.

Turning to `Cc1nn(C)c(F)c1C(=O)NC1CCCCC1C(C)CC(C)C` (stereo not shown) [I-c-1], in data set [1] (setting [7]), the chromatographic logP turned out to be 4.15. Further, the pest or weed control at 500 g/ha in data set [2] worked out at 100%. The figures for the Efficacy in % in data set [3] and in data set [4] were 100% and 88%, respectively.

Take `Cc1nc(C(F)F)c(C(=O)NC2CCCCC2C(C)CC(C)C)s1` (stereo not shown) [I-c-4, 4-(difluoromethyl)-N-[2-(1,3-dimethylbutyl)cyclohexyl]-2-methyl-1,3-thiazole-5-carboxamide]: the “log P (pH 2.3)” value in data set [1] (Example 1, pH 2.3, two values = mixture of diastereomers) is 4.53. Besides, the logP in data set [1] (setting [8]) was 4.53. The chromatographic logP in data set [1] (setting [7]) turned out to be 4.45; in data set [1] (pH 2.3, text of Example 1, pH 2.3, two values = mixture of diastereomers, read-out: log P (pH 2.3)) it was 4.45. The Efficacy in % is 100% in data set [5], 98% in data set [3], 95% in data set [6] and 100% in data set [4]. The pest or weed control at 500 g/ha in data set [2] worked out at 100%.

In turn, `CC(C)CC(C)C1CCCCC1NC(=O)c1nccnc1Cl` (stereo not shown) [I-c-5] registered a logP in data set [1] (setting [8]) of 4.23. For the same molecule, the chromatographic logP in data set [1] (setting [7]) was found to be 4.12. Further, the Efficacy in % turned out to be 100% in data set [5], 100% in data set [3], 99% in data set [6] and 100% in data set [4]. The pest or weed control at 500 g/ha in data set [2] worked out at 100%.

In data set [1] (setting [8]), `CC(C)CC(C)C1CCCCC1NC(=O)c1cn(C)nc1C(F)F` (stereo not shown) [I-c-7] had a logP of 4.28. For the same molecule, the chromatographic logP in data set [1] (setting [7]) amounted to 3.88. For the same molecule, the Efficacy in % in data set [5] is given as 100%; in data set [3] it was 100%; in data set [6], 94%; in data set [4], 100%. The pest or weed control at 500 g/ha in data set [2] amounted to 100%.

Take `Cc1nn(C)cc1C(=O)NC1CCCCC1C(C)CC(C)C` (stereo not shown) [I-c-14]: the logP in data set [1] (setting [8]) amounted to 3.47. Also, in data set [1] (setting [7]), the chromatographic logP came to 3.18. For the same molecule, the Efficacy in % in data set [5] came to 100%. Moreover, in data set [2], the pest or weed control at 500 g/ha is 100%.

The record behind these values is US8748471B2, “2-alkyl-cycloalk(en)yl-carboxamides” (priority 2004, dated 2014).
